From patent publication US12024707B2, “Methods and compositions for modulating lncRNAs and methods of treatment based on lncRNA expression” (Washington University, priority 2020, dated 2024)
“And” between values parts separate entries of the source, which are not always exact repeats. Equal values may be shown once. Where a name gives a salt, the structure may show the parent alone. Read-outs that look alike come from different tables or passages of the source.

System: HT29 RAMS11 overexpressing cells
Experiment: High-throughput viability assay (resazurin), 119 FDA-approved anticancer drugs, RAMS11 overexpressing cells (Clone1, Clone2)
[1] = OE1 (RAMS11 overexpression clone 1), 0.1 uM drug, 72 h, vs empty vector control
[2] = OE1 (RAMS11 overexpression clone 1), 1 uM drug, 72 h, vs empty vector control
[3] = OE1 (RAMS11 overexpression clone 1), 10 uM drug, 72 h, vs empty vector control
[4] = OE2 (RAMS11 overexpression clone 2), 0.1 uM drug, 72 h, vs empty vector control
[5] = OE2 (RAMS11 overexpression clone 2), 1 uM drug, 72 h, vs empty vector control
[6] = OE2 (RAMS11 overexpression clone 2), 10 uM drug, 72 h, vs empty vector control

Molecule | Viability Fold Change [1] | Viability Fold Change [2] | Viability Fold Change [3] | Viability Fold Change [4] | Viability Fold Change [5] | Viability Fold Change [6] | Viability Fold Change | increase in cellular viability compared with empty vector control cell line (HT29 RAMS11 overexpressing vs empty vector cells, treated 72 h)
C[C@@H](Oc1cc(-c2cnn(C3CCNCC3)c2)cnc1N)c1c(Cl)ccc(F)c1Cl [Crizotinib] | 0.9595 | 1.07 | 0.9127 | 0.9806 | 1.093 | 0.8562 |  | 
OC[C@H]1O[C@@H](n2cnc3c2NC=NC[C@H]3O)C[C@@H]1O [Pentostatin] | 0.9312 | 0.9502 | 0.8658 | 0.9287 | 0.9777 | 1.078 |  | 
NCC(=O)CCC(=O)O [Aminolevulinic Acid] | 0.8803 | 0.9655 | 1.022 | 0.914 | 1.058 | 0.9613 |  | 
C=C1C[C@@H]2[C@H](CC[C@]3(C)C(=O)CC[C@@H]23)[C@@]2(C)C=CC(=O)C=C12 [Exemestane] | 0.8651 | 0.981 | 0.9176 | 1.047 | 1.008 | 1.06 |  | 
COc1nc(N)nc2c1ncn2[C@@H]1O[C@H](CO)[C@@H](O)[C@@H]1O [Nelarabine] | 0.9819 | 1.033 | 0.9555 | 0.9462 | 1.007 | 0.9701 |  | 
COc1cc([C@@H]2c3cc4c(cc3C(O[C@@H]3O[C@@H]5CO[C@@H](C)O[C@H]5[C@H](O)[C@H]3O)C3COC(=O)[C@@H]32)OCO4)cc(OC)c1O (stereo partly shown) [Etopside] | 1.144 | 1.073 | 1.161 | 1.13 | 0.9992 | 1.196 |  | 
O=C1c2c(O)ccc(O)c2C(=O)c2c(NCCNCCO)ccc(NCCNCCO)c21 [Mitoxantrone] | 1.145 | 1.451 | 1.375 | 1.105 | 1.432 | 1.508 |  | 
O=C(c1ccc(OCCN2CCCCC2)cc1)c1c(-c2ccc(O)cc2)sc2cc(O)ccc12 [Raloxifene] | 0.9457 | 0.9244 | 0.9067 | 0.9401 | 0.9282 | 0.9671 |  | 
CCN(CC)CCNC(=O)c1c(C)[nH]c(/C=C2\C(=O)Nc3ccc(F)cc32)c1C [Sunitinib] | 0.8337 | 0.8856 | 0.2329 | 0.914 | 0.9165 | 0.5714 |  | 
CC/C(=C(\c1ccccc1)c1ccc(OCCN(C)C)cc1)c1ccccc1 [Tamoxifen Citrate] | 1.127 | 1.144 | 1.077 | 1.097 | 1.08 | 1.059 |  | 
N.N.O=C([O-])C1(C(=O)[O-])CCC1.[Pt+2] [Carboplatin] | 1.016 | 1.047 | 1.103 | 0.9697 | 1.074 | 0.9969 |  | 
CO[C@@]12[C@H](COC(N)=O)C3=C(C(=O)C(C)=C(N)C3=O)N1C[C@@H]1N[C@@H]12 [Mitomycin] | 0.9668 | 1.547 | 2.416 | 1.006 | 1.624 | 2.004 |  | 
C#CCC(Cc1cnc2nc(N)nc(N)c2n1)c1ccc(C(=O)N[C@@H](CCC(=O)O)C(=O)O)cc1 (stereo partly shown) [Pralatrexate] | 0.7405 | 0.9216 | 1.034 | 0.8579 | 0.9781 | 1.119 |  | 
C#Cc1cccc(Nc2ncnc3cc(OCCOC)c(OCCOC)cc23)c1 [Erlotinib HCl] | 0.9958 | 1.169 | 1.179 | 0.9899 | 1.172 | 1.215 |  | 
CN(C)C/C=C/C(=O)Nc1cc2c(Nc3ccc(F)c(Cl)c3)ncnc2cc1O[C@H]1CCOC1 [Afatinib] | 1.034 | 1.121 | 1.39 | 1.147 | 1.156 | 1.398 |  | 
COc1cc2ncnc(Nc3ccc(F)c(Cl)c3)c2cc1OCCCN1CCOCC1 [Gefitinib] | 0.9453 | 1.164 | 1.468 | 0.9436 | 1.227 | 1.392 |  | 

Molecule | Viability Fold Change [1] | Viability Fold Change [2] | Viability Fold Change [3] | Viability Fold Change [4] | Viability Fold Change [5] | Viability Fold Change [6] | Viability Fold Change | increase in cellular viability compared with empty vector control cell line (HT29 RAMS11 overexpressing vs empty vector cells, treated 72 h)
Cc1ccc(C(=O)Nc2ccc(CN3CCN(C)CC3)c(C(F)(F)F)c2)cc1C#Cc1cnc2cccnn12 [Ponatinib] |  |  |  |  |  |  | 1.056 and 0.9383 and 0.9645 and 1.199 and 0.9342 and 1.001 | 
Arsenic trioxide | 0.9683 | 0.9697 | 0.8821 | 1.015 |  | 1.115 |  | 
Nc1ncn([C@@H]2O[C@H](CO)[C@@H](O)[C@H]2O)c(=O)n1 [Azacitidine] | 1.05 | 1.098 | 0.9367 | 1.089 | 1.054 | 0.9049 |  | 
C1CN1c1nc(N2CC2)nc(N2CC2)n1 [Triethylenemelamine] |  |  |  |  |  |  | 1.287 and 1.238 and 0.9974 and 1.295 and 1.284 and 1.013 | 
N.N.[Cl][Pt][Cl] [Cisplatin] | 1.023 | 0.9277 | 0.9406 | 0.9583 | 0.9782 | 0.9961 |  | 
Cc1cc(Nc2ncc(Cl)c(Nc3ccccc3S(=O)(=O)C(C)C)n2)c(OC(C)C)cc1C1CCNCC1 [Ceritinib] | 0.9923 | 1.015 | 0.8304 | 1.009 | 1.068 | 0.8195 |  | 
CCCCCOC(=O)Nc1nc(=O)n([C@@H]2O[C@H](C)[C@@H](O)[C@H]2O)cc1F [Capecitabine] | 1.291 | 0.7939 | 0.9609 | 1.102 | 0.8093 | 1.166 |  | 
O=C(O)CCCc1ccc(N(CCCl)CCCl)cc1 [Chlorambucil] | 0.9531 | 1.164 | 1.064 | 0.9859 | 1.144 | 0.9173 |  | 
O=P(O)(O)C(O)(Cn1ccnc1)P(=O)(O)O [Zoledronic acid] | 0.9494 | 0.9911 | 1.01 | 0.9595 | 1.055 | 1.082 |  | 
CCC1=C[C@@H]2CN(C1)Cc1c([nH]c3ccccc13)[C@@](C(=O)OC)(c1cc3c(cc1OC)N(C)[C@H]1[C@@](O)(C(=O)OC)[C@H](OC(C)=O)[C@]4(CC)C=CCN5CC[C@]31[C@@H]54)C2 [Vinorelbine tartrate] | 0.9568 | 1.194 | 2.913 | 0.9481 | 1.067 | 2.913 |  | 
CO[C@H]1C(=O)[C@]2(C)[C@@H](OC)C[C@H]3OC[C@@]3(OC(C)=O)[C@H]2[C@H](OC(=O)c2ccccc2)[C@]2(O)C[C@H](OC(=O)[C@H](O)[C@@H](NC(=O)OC(C)(C)C)c3ccccc3)C(C)=C1C2(C)C [Cabazitaxel] | 2.975 | 3.231 | 2.607 | 2.745 | 2.869 | 2.506 |  | 
CN(C)/N=N/c1[nH]cnc1C(N)=O [Dacarbazine] | 1.078 | 0.9877 | 0.983 | 1.084 | 1.028 | 0.9794 |  | 
CC1=C(/C=C/C(C)=C/C=C/C(C)=C/C(=O)O)C(C)(C)CCC1 [Tretinoin] | 1.161 | 1.226 | 1.142 | 1.068 | 1.373 | 1.336 |  | 
O=P1(NCCCl)OCCCN1CCCl (stereo not shown) [Ifosfamide] | 0.9167 | 1.025 | 0.9724 | 0.9226 | 1.055 | 1.058 |  | 
Nc1ccn([C@@H]2O[C@H](CO)[C@@H](O)C2(F)F)c(=O)n1 [gemcitabine, reference compound] |  | 3.429 | 2.39 | 1.507 | 3.028 | 2.499 |  | greatest resistance
